Laboratory results from paper PMC8001250 (Biomolecules, 2021).
Values after ≈ are worked out from the molar mass of the structure shown. “Also recorded” adds a separate entry of the source. Read-outs that look alike come from different tables or passages of the source. Non-standard residues stand in square brackets, D forms with d. Residues, ends and D or L forms follow the SMILES beside them. Ala(azulen-1-yl) = N[C@@H](Cc1ccc2cccccc1-2)C(=O)O

Columns and labels:
A. baumannii ATCC 19609 [1] = type: cell-based; details: ATCC 19609, 18 h
Experimental: (§1) Bacteria were streaked from frozen glycerol stocks onto LB agar plates (E. coli D31, S. aureus ATCC 35556, P. aeruginosa PA-01, A. baumannii ATCC 19609). The plates were incubated at 37 °C for ~18 h to allow growth. An individual colony from each plate was transferred into individual sterile tubes containing 3 mL of Muller Hinton (MH) broth and subsequently incubated for 18 h with shaking (225 rpm) at 37 °C. An aliquot of this culture was then diluted with fresh MH broth (1:250) and further incubated with shaking (225 rpm) at 37 °C until an OD600 of 0.2–0.4 was reached. This mid-log culture was then diluted to 5 × 10^5 CFU/mL in fresh MH broth. Serially diluted peptides were dispensed in a 96-well plate such that the final concentration in each well would be in the range of 15 µM to 0.234 µM. Then, 90 µL of the freshly diluted culture was transferred to the 96-well plate, yielding a final volume of 100 µL. The 96-well plate was covered and transferred to a humidified incubator at 37 °C for 18 h. The growth and inhibition of bacterial growth were determined by measuring OD600 directly in the plate and comparing to an untreated control. The Minimum Bactericidal Concentration (MBC) was determined by transferring 1 µL of culture from each well of the MIC plate onto fresh LB agar plates and allowed to incubate overnight at 37 °C.

S. aureus ATCC 35556 [2] = type: cell-based; details: ATCC 35556, 18 h
Experimental: as §1

P. aeruginosa PA-01 [3] = type: cell-based; details: PA-01, 18 h
Experimental: as §1

trypsin = trypsin (50 µL of 0.001 mg/mL solution) in buffer (50 mM sodium phosphate, 100 mM NaCl, pH 7.0); details: room temperature, up to 4 hours
S. aureus ATCC 35556 [4] = details: previously reported activity of the parent peptide; ref [30]; cited from earlier work
Text: Table 2 Bacterial growth inhibition/killing concentration (µM). | column: S. aureus

A. baumannii ATCC 19609 [5] = details: previously reported activity of the parent peptide; ref [30]; cited from earlier work
Text: Table 2 Bacterial growth inhibition/killing concentration (µM). | column: A. baumannii

E. coli D31 = details: previously reported activity of the parent peptide; ref [30]; cited from earlier work
Text: Table 2 Bacterial growth inhibition/killing concentration (µM). | column: E. coli

P. aeruginosa PA-01 [6] = details: previously reported activity of the parent peptide; ref [30]; cited from earlier work
Text: Table 2 Bacterial growth inhibition/killing concentration (µM). | column: P. aeruginosa

## CC[C@H](C)[C@H](NC(=O)[C@H](Cc1c[nH]c2ccccc12)NC(=O)[C@@H](NC(=O)[C@H](Cc1ccc2cccccc1-2)NC(=O)[C@@H]1CCCN1C(=O)[C@@H](NC(=O)[C@H](C)N)[C@@H](C)CC)[C@@H](C)CC)C(=O)N[C@@H](Cc1c[nH]c2ccccc12)C(=O)N[C@@H](CCCNC(=N)N)C(=O)N[C@@H](CC(C)C)C(=O)N[C@@H](CC(C)C)C(=O)N[C@@H](CCCNC(=N)N)C(=O)N[C@@H](CCCCN)C(=O)NCC(N)=O [Peptide Z4] (H-AIP[Ala(azulen-1-yl)]IWIWRLLRKG-NH2)
A. baumannii ATCC 19609 [1]
  MBC, A. baumannii: 7.50 µM (≈ 13.6 µg/mL)
  MIC, A. baumannii: 7.50 µM (≈ 13.6 µg/mL)
S. aureus ATCC 35556 [2]
  MBC, S. aureus: 7.50 µM (≈ 13.6 µg/mL)
  MIC, S. aureus: 7.50 µM (≈ 13.6 µg/mL)
P. aeruginosa PA-01 [3]
  MBC, P. aeruginosa: >15 µM
  MIC, P. aeruginosa: >15 µM

## CC[C@H](C)[C@H](NC(=O)[C@H](Cc1ccc2cccccc1-2)NC(=O)[C@@H](NC(=O)[C@H](Cc1c[nH]c2ccccc12)NC(=O)[C@@H]1CCCN1C(=O)[C@@H](NC(=O)[C@H](C)N)[C@@H](C)CC)[C@@H](C)CC)C(=O)N[C@@H](Cc1c[nH]c2ccccc12)C(=O)N[C@@H](CCCNC(=N)N)C(=O)N[C@@H](CC(C)C)C(=O)N[C@@H](CC(C)C)C(=O)N[C@@H](CCCNC(=N)N)C(=O)N[C@@H](CCCCN)C(=O)NCC(N)=O [Peptide Z6] (H-AIPWI[Ala(azulen-1-yl)]IWRLLRKG-NH2)
A. baumannii ATCC 19609 [1]
  MBC, A. baumannii: 7.50 µM (≈ 13.6 µg/mL)
  MIC, A. baumannii: 3.75 µM (≈ 6.82 µg/mL)
S. aureus ATCC 35556 [2]
  MBC, S. aureus: 1.88 µM (≈ 3.42 µg/mL)
  MIC, S. aureus: 1.88 µM (≈ 3.42 µg/mL)
P. aeruginosa PA-01 [3]
  MBC, P. aeruginosa: >15 µM
  MIC, P. aeruginosa: >15 µM

## CC[C@H](C)[C@H](NC(=O)[C@H](Cc1c[nH]c2ccccc12)NC(=O)[C@@H](NC(=O)[C@H](Cc1c[nH]c2ccccc12)NC(=O)[C@@H]1CCCN1C(=O)[C@@H](NC(=O)[C@H](C)N)[C@@H](C)CC)[C@@H](C)CC)C(=O)N[C@@H](Cc1ccc2cccccc1-2)C(=O)N[C@@H](CCCNC(=N)N)C(=O)N[C@@H](CC(C)C)C(=O)N[C@@H](CC(C)C)C(=O)N[C@@H](CCCNC(=N)N)C(=O)N[C@@H](CCCCN)C(=O)NCC(N)=O [Peptide Z8] (H-AIPWIWI[Ala(azulen-1-yl)]RLLRKG-NH2)
A. baumannii ATCC 19609 [1]
  MBC, A. baumannii: 7.50 µM (≈ 13.6 µg/mL)
  MIC, A. baumannii: 7.50 µM (≈ 13.6 µg/mL)
S. aureus ATCC 35556 [2]
  MBC, S. aureus: 15.00 µM (≈ 27.3 µg/mL)
  MIC, S. aureus: 7.50 µM (≈ 13.6 µg/mL)
P. aeruginosa PA-01 [3]
  MBC, P. aeruginosa: >15 µM
  MIC, P. aeruginosa: >15 µM

## AIPWIWIWRLLRKG
trypsin
  fragment found: AIPWIWIWR; also recorded: AIPWIWIWRLLR

## H-AIPWIWIWRLLRKG-NH2 [WWW]
S. aureus ATCC 35556 [4]
  MBC, S. aureus: 3.75 µM
  MIC, S. aureus: 3.75 µM
A. baumannii ATCC 19609 [5]
  MBC, A. baumannii: 3.75 µM
  MIC, A. baumannii: 3.75 µM
E. coli D31
  MBC, E. coli: 7.50 µM
  MIC, E. coli: 7.50 µM
P. aeruginosa PA-01 [6]
  MBC, P. aeruginosa: >15 µM
  MIC, P. aeruginosa: 15.00 µM
